# What was measured:
# [1] = test system: lashes and hair around the eyes; test: Study of lashes and hair around the eyes of glaucoma patients administering bimatoprost in only one eye (slit lamp biomicroscope); format: in vivo, human; settings: one drop daily of 0.03% ophthalmic solution to one eye
# Protocol: A study is initiated to systematically evaluate the appearance of lashes and hair around the eyes of patients who are administering bimatoprost in only one eye. The study involves 10 subjects, 5 male, 5 female, average age 70 years, (ranging from 50-94 years). All patients have glaucoma. Each subject is treated daily by the topical application of one drop of bimatoprost at a dosage of 1.5 µg/ml/eye/day (0.03%, by weight, ophthalmic solution, sold under the names Lumigan® and Latisse® by Allergan, Irvine, Calif., U.S.A.) to the region of one eye by instilling the drop onto the surface of the eye. The region of the fellow control eye is not treated with bimatoprost and served as a control.
# In the course of treatment with eye drops, there is typically spontaneous tearing, and excess fluid from the drops and associated tears gathers at the lid margins. In the course of wiping the drug containing fluid from the lid margins and adjacent lid, a thin film of the fluid is routinely spread to contact the adjacent skin of the lid area.
# The study is limited to subjects who have administered bimatoprost to one eye for more than 3 months. The mean duration of exposure to bimatoprost prior to assessing the parameter of lash growth between the control and study eye is 129 days (range 90-254 days). Observations are made under high magnification at the slit lamp biomicroscope. Documentation of differences between the control and treatment areas is accomplished using a camera specially adapted for use with the slit lamp biomicroscope. The results of the observations are as follows: Length of lashes: Increased length of eyelashes is regularly observed on the side treated with bimatoprost. The difference in length varies from approximately 10% to as much as 30%. […] In areas where there are a large number of lashes in the control eye, the increased number of lashes in the bimatoprost-treated eye gave the lashes on the treated side a more thickly matted overall appearance. […] These long, thick lash-like hairs were present in the central portion of the lids of several patients in a linear arrangement just above the lash line. Hairs are present at similar locations in the control eyes but are by contrast thinner or more fine in appearance, have less luster and pigment and are more flat against the skin of the lid typical of vellus or intermediate hairs. In several patients, lash-like terminal hairs grow luxuriantly in the medial canthal area in the treated eye. In the corresponding control eye, vellus hairs are seen at the same location. Lash-like hairs are also present in the lateral canthal area of the treated eye but not the control eye in several subjects. […]
# [2] = test system: lashes and adjacent hairs; test: Daily-practice observation of lashes in glaucoma patients treated with bimatoprost in one eye; format: in vivo, human
# Source text: In the course of treating patients having glaucoma, treatment may only be appropriate in one eye. […] The lash appearance on the lids of the treated eye would have appeared quite attractive if it represented a bilateral phenomenon. Because of its asymmetric nature, the long lashes on one side could be construed as disturbing from a cosmetic standpoint. Because of the very unusual appearance a systematic examination of other patients who were taking bimatoprost in only one eye was made. It soon became apparent that this altered appearance was not an isolated finding. […] Definite differences could be identified to varying degrees in the lashes and adjacent hairs of all patients who were taking the drug on a unilateral basis for longer than 6 months. These findings were totally unexpected and surprising.
# The changes in the lashes after topical application of bimatoprost were apparent on gross inspection in several patients once attention was focused on the issue. In those with light colored hair and lashes, the differences were only seen easily with the aid of the high magnification and lighting capabilities of the slit lamp biomicroscope. In the course of a glaucoma follow up examination, attention is generally immediately focused on the eye itself. […]
# [3] = powder, cited from earlier work
smiles,measurement,setting,value
"CCNC(=O)CCC/C=C\C[C@@H]1[C@@H](/C=C/[C@@H](O)CCc2ccccc2)[C@H](O)C[C@@H]1O [Bimatoprost, (Z)-7-[(1R,2R,3R,5S)-3,5Dihydroxy-2-[(1E,3S)-3-hydroxy-5-phenyl-1-pentenyl]cyclopentyl]-5-N-ethylheptenamide]","Growth of vellus hair on lids, treated vs control eye",[1]; areas below and lateral to the lower lid,"increased in number, appear more robust and are much longer and thicker"
same,"Perpendicular angulation of hairs, treated vs control eye",[1]; lash-like hairs above lash line and in canthal areas,leave the surface of the skin at a more acute angle
same,"Number of lashes, treated vs control eye","[1]; mean exposure 129 days, fellow eye untreated",Increased numbers of lashes
same,"Auxiliary lash-like hair growth, treated vs control eye",[1]; several patients,apparent increase in lash-like hair in transitional areas
same,Lash appearance in treated eye vs non-treated eye,[2]; glaucoma patient treated in one eye,"longer, thicker and fuller in the treated eye than in the non-treated eye"
same,Hypertrichosis in the region of treatment,[2]; patients treated in or around the eye,regularly develop hypertrichosis
same,solubility in ethyl alcohol,[3]; ethyl alcohol,very soluble
same,solubility in methyl alcohol,[3]; methyl alcohol,very soluble
same,solubility in water,[3]; water,slightly soluble

# Source: patent US20160136071A1, “Topical bimatoprost for promoting hair growth containing formulations” (priority 2013, published 2016)
